Test results from patent US9080173B2, “Methods and compositions for RNAi-based cancer treatment” (SILENSEED LTD., priority 2012, dated 2015).
d = 2'-deoxy (DNA); r = 2'-OH (RNA)

Tests used:
Panc1-LUC tumors = assay: Survival of SCIDbg mice with s.c. Panc1-LUC tumors; format: in vivo; conditions: 4 μg siG12D in 200 μl PBS i.p. weekly; over 41 days
Experimental: Mice were injected s.c. with 10×10^6 Panc1-LUC tumor cells in a total volume of 100 μl PBS, or into the tail of the pancreas with 10^6 cells in a total volume of 30 μl PBS.
In another experiment, 30 SCIDbg mice were injected s.c. with Panc1-LUC tumor cells, and were divided into 4 groups: (a) siG12D-DDD (12 μg siG12D per DDD)—2 DDD placed in each mouse; (b) empty DDD—2 DDD placed in each mouse; (c) 4 μg siG12D in 200 μl PBS injected intraperitoneally (i.p.) on a weekly basis; and (d) untreated. Tumor development was measured by caliper and Luciferase measurements. […] The difference in survival was statistically significant (p<0.05 compared to the other 3 groups).

Panc1 cells = assay: Methylene Blue viability test of transfected Panc1 cells, alone and with Gemzar; format: cell-based; conditions: 72h post-transfection; 1 hr of treatment with 10 μM Gemzar
Experimental: FIG. 7. Gemzar® enhances siG12D-DDD effect. Panc1 cells were transfected using Lipofectamine™ with unmodified and modified siG12D and a scrambled (non-targeting) siRNA control molecule or were mock transfected (no siRNA). Cell viability was assessed 72 hrs post-transfection by the Methylene Blue (MB) test. Additional groups were transfected as described above, followed by 1 hr of treatment with 10 μM Gemzar®. The numbers 1-4 in the last column relate to the percent of inhibition of cellular growth, wherein the inhibition seen with the unmodified siRNA was assigned the value of 100%. 4, 3, 2, and 1 refer respectively to 75-100%, 50-75%, 25-50%, and 0-25% of the inhibition seen with the unmodified siRNA.
Experimental procedure: Panc1 cells were transfected using Lipofectamine™ with unmodified and modified siG12D and a scrambled (non-targeting) siRNA control molecule or were mock transfected (no siRNA). Cell viability was assessed 72 hrs post-transfection by the Methylene Blue (MB) test. Additional groups were transfected as described above, followed by 1 hr of treatment with 10 μM Gemzar®. At the exemplary time point of 72h, Gemzar® enhanced the effect of siG12D by nearly 10%. […] Other time points, for example 48h, 72h, 96h and 120h, may be utilized in additional studies.

For “sense GUUGGAGCUGAUGGCGUAGdTdT (SEQ ID No: 41), antisense CUACGCCAUCAGCUCCAACdTdT (SEQ ID No: 42) (sense GUUGGAGCUGAUGGCGUAGTT; antisense CUACGCCAUCAGCUCCAACTT; sugars from the 5' end r19 d2, backbone not given here) [siG12D, unmodified siRNA against G12D-mutated K-ras]”, the survival rate (Panc1-LUC tumors) was 33.33% and the “enhancement of the effect of siG12D on cell viability by Gemzar” value (Panc1 cells) was roughly 10%.
